SMILES strings stand for the structures. ≈ marks a conversion by molar mass, not a printed value.

The subject of one assay is K562 cell line. Nature of the assay: MTT test of structural analogues of harringtonines on K562 cell line. Type of assay: cell-based. Conditions: Homo sapiens, K562, 72 h. Here is the method:
(§1) Structural analogues of harringtonines described in this invention were tested on K562 cell line, derived from chronic myeloid leukemia cells in blastic transformation (bcr-abl positive). The cell line was purchased from ATCC (American Tissue Culture Collection) and grown in RPMI medium supplemented with 10% heat-inactivated fetal calf serum, 2 mmol/L glutamine, […] penicillin and […] streptomycin. All tested products were initially dissolved in […] (pH=2), supplemented with ultrasound treatment during 1 h. Working concentrations were made by dilution in culture medium (pH around 7). Cells in exponential growth phase were placed into 96-microwell plates in concentration 3×10^4/mL (total volume 200 μL/well) and incubated with drugs for 72 h at 37° C. in 5% CO2 humidified atmosphere. Following incubation, 2 μL of MTT solution (Sigma, St. Louis, Mo.) was added to each well. During the following 6 h of incubation at 37° C., the purple formazan product was formed by conversion of the yellow MTT salt in the mitochondria of the viable cells. The resulting precipitate was dissolved in DMSO and the amount of converted MTT was quantified in an ELISA reader (MR 5000, Dynatech). Each product was tested in triplicate (3×8 wells). Every test contained at least one plate with HHT as control, added in the same concentration as the tested products.
Take `COC1=C[C@@]23CCCN2CCc2cc4c(cc2[C@@H]3C1OC(=O)[C@@](O)(CCCC(C)(C)O)CC(=O)OCc1ccco1)OCO4` (stereo partly drawn) [Example 83, (2′R)-4′-furfuryl-4′-demethyl-homoharringtonine]: the midpoint of inhibition, the IC50, lay at 0.003 µg/mL (≈ 0.0049 µM).
The compound `COC1=C[C@@]23CCCN2CCc2cc4c(cc2[C@@H]3C1OC(=O)[C@@](O)(CCCC(C)(C)O)CC(=O)OCCOCc1ccccc1)OCO4` (stereo partly drawn) [Example 80, (2′R)-4′-(2-benzyloxyethoxy)-4′-demethyl-homoharringtonine] had an IC50 of 0.025 µg/mL (≈ 0.0375 µM).
The same measure, in the same setting: under `COC1=C[C@@]23CCCN2CCc2cc4c(cc2[C@@H]3C1OC(=O)[C@@](O)(CCCC(C)(C)O)CC(=O)OCc1ccccc1OC)OCO4` (stereo partly drawn) [Example 90, (2′R)-4′-o-methoxybenzyloxy-4′-demethyl-homoharringtonine] stands 0.027 µg/mL (≈ 0.0414 µM); under `COC(=O)C[C@](O)(CCC=C(C)C)C(=O)OC1C(OC)=C[C@@]23CCCN2CCc2cc4c(cc2[C@H]13)OCO4` (stereo partly drawn) [Example 61, 4-methyl (2R)-2-hydroxy-2-(4-methyl-pent-3-enyl)succinate of (−)-cephalotaxine], 0.0175 µg/mL (≈ 0.0332 µM).
Same read-out and setting: under `CCCCOC(=O)C[C@](O)(CCCC(C)(C)O)C(=O)OC1C(OC)=C[C@@]23CCCN2CCc2cc4c(cc2[C@H]13)OCO4` (stereo partly drawn) [Example 50, (2′R)-4′-butyl-4′-demethyl-homoharringtonine] stands 0.013 µg/mL (≈ 0.0221 µM).
On the same count and under the same terms, the same measure for `C=CCOC(=O)C[C@](O)(CCCC(C)(C)O)C(=O)OC1C(OC)=C[C@@]23CCCN2CCc2cc4c(cc2[C@H]13)OCO4` (stereo partly drawn) [Example 40, (2′R)-4′-(2-propenyl)-4′-demethyl-homoharringtonine]: 0.0145 µg/mL (≈ 0.0254 µM).
`COC1=C[C@@]23CCCN2CCc2cc4c(cc2[C@@H]3C1OC(=O)[C@@](O)(CCCC(C)(C)O)CC(=O)OCc1cccc(C)c1)OCO4` (stereo partly drawn) [Example 73, (2′R)-4′-m-methylbenzyl-4′-demethyl-homoharringtonine] yielded an IC50 of 0.004 µg/mL (≈ 0.00629 µM).

The same assay, now with this note: Homo sapiens; K562 cell line, 72 h incubation, MTT; read-out: IC50.
Regarding `[2H]C([2H])([2H])OC(=O)C[C@](O)(CCCC(C)(C)O)C(=O)OC1C(OC)=C[C@@]23CCCN2CCc2cc4c(cc2[C@H]13)OCO4` (stereo partly drawn) [Example 75, (2′R)-(4′-^2H3)homoharringtonine], the IC50 was determined as 0.025 µg/mL (≈ 0.0456 µM).
On the same count and under the same terms, under `[2H]COC(=O)C[C@](O)(CCCC(C)(C)O)C(=O)OC1C(OC)=C[C@@]23CCCN2CCc2cc4c(cc2[C@H]13)OCO4` (stereo partly drawn) [Example 76, (2′R)-(4′-^2H)homoharringtonine] stands 0.018 µg/mL (≈ 0.0329 µM).

Staying with this assay, now noted: K562 cell line, 72 h incubation, MTT.
For `CC=CC=CCOC(=O)C[C@](O)(CCCC(C)(C)O)C(=O)O[C@@H]1C(OC)=C[C@]23CCCN2CCc2cc4c(cc2[C@H]13)OCO4` [Example 43, (2′R)-4′-(hexa-2,4-dienyl)-4′-demethyl-homoharringtonine], the IC50 worked out at 0.0035 µg/mL (≈ 0.00572 µM).
Still for that read-out and setting: under `CC=CCOC(=O)C[C@](O)(CCCC(C)(C)O)C(=O)O[C@@H]1C(OC)=C[C@]23CCCN2CCc2cc4c(cc2[C@H]13)OCO4` [Example 37, (2′R)-4′-(but-2-enyl)-4′-demethyl-homoharringtonine] stands 0.0125 µg/mL (≈ 0.0213 µM).

A further assay concerns K562MRP. Kind of assay: MTT test on K562MRP, homoharringtonine-resistant subline of K562. To be noted: K562MRP subline resistant to 50 ng/mL homoharringtonine, same method as K562. The class given is cell-based. The method, then: as §1
For `CC=CC=CCOC(=O)C[C@](O)(CCCC(C)(C)O)C(=O)O[C@@H]1C(OC)=C[C@]23CCCN2CCc2cc4c(cc2[C@H]13)OCO4` [Example 43, (2′R)-4′-(hexa-2,4-dienyl)-4′-demethyl-homoharringtonine], the IC50 is 0.016 µg/mL (≈ 0.0262 µM).

Source of the values: US7285546B2, “Cephalotaxanes, their method of preparation and their use in treatment of cancers, leukemias, parasites including those resistant to usual chemotherapeutic agents and as reversal agents” (Stragen Pharma S.A., priority 2000, dated 2007).
